Experimental data reported in patent publication US20230056497A1, “CD206 Modulators Their Use and Methods for Preparation” (The United States of America, As Represented by the …, priority 2019, published 2023).
pIC50: −log10 of the molar value. Where two headings read alike, the source gives them in different places.

Columns and labels:
M2 macrophages [1] = experiment: Anti-cell viability screening: reduction of M2 macrophage cell viability (Percentage Relative Cell Viability versus Log Molar Concentration); format: cell-based
Experimental: Assays were conducted in a 96-well black solid-bottom plate with a final assay volume of 100 μL.

[2] = tested on: M2 polarized macrophages with intact CD206 (wild type) versus isogenic M2 polarized macrophages lacking the CD206 receptor; experiment: Cell viability in M2 polarized macrophages with intact CD206 versus isogenic macrophages lacking CD206; format: cell-based
[3] = Pharmacokinetics (PK) profile, plasma concentration versus time; format: in vivo
[4] = target: T1, recombinant human CD206 protein (UniProt ID P22897-1) (Homo sapiens, UniProt P22897); experiment: Electron microscopy of recombinant CD206 incubated with compound, particles scored closed versus open; format: binding; settings: 30 minutes at 1 μM
T1 sequence (P22897 19-1456): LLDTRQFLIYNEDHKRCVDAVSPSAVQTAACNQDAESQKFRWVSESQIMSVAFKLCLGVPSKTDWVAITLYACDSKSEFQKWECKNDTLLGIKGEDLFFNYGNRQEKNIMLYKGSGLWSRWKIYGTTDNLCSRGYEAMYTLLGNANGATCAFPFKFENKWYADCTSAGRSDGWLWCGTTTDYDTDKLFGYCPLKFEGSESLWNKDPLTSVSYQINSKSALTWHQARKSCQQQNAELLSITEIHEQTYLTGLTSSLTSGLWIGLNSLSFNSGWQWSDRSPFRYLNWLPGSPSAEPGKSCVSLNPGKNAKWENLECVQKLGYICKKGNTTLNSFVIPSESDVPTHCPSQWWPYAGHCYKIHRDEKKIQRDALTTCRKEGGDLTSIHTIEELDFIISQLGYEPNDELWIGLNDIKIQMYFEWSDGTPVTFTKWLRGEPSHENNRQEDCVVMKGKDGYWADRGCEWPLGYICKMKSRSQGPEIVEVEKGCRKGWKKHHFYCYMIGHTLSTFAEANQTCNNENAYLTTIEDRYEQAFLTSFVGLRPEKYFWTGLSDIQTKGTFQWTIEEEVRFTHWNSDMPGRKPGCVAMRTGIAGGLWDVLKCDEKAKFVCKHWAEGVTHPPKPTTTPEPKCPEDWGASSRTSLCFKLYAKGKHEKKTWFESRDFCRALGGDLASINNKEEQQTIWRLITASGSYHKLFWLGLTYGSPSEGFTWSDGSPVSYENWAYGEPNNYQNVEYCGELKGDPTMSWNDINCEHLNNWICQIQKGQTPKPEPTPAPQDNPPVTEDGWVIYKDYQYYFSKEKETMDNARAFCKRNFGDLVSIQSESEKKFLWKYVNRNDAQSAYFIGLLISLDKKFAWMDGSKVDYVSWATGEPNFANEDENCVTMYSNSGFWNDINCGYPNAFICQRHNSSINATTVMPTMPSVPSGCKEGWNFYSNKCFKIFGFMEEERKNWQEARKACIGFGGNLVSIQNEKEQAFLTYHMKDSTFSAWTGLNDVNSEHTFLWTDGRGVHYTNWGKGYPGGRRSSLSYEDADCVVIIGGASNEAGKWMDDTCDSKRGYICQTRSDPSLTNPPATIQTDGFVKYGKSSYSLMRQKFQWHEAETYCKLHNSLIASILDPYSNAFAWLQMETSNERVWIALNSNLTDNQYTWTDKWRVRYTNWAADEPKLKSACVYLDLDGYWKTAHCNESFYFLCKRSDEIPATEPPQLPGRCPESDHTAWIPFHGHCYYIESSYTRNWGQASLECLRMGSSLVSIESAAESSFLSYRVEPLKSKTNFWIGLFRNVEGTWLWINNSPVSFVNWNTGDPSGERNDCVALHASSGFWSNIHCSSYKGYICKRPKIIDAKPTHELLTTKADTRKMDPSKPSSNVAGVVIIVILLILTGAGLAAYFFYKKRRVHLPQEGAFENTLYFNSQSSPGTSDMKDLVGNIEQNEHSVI
Experimental: FIGS. 11A and 11B illustrate conformational change on CD206 when incubated with Compound 1.

[5] = tested on: Kras(G12D)/Trp53(R172H)/Pdx-1-Cre (KPC) mice (murine pancreatic cancer model); experiment: In vivo testing in transgenic KPC mice, tumor growth; settings: compared to vehicle
Description: Tumor growth was suppressed during in vivo testing of Compound 1 in fully immune-competent transgenic Kras(G12D)/Trp53(R172H)/Pdx-1-Cre (KPC) mice (murine pancreatic cancer model) compared to vehicle as shown in FIG. 3B. This point was further illustrated in FIGS. 3A and 3C where comparison of tumor volume for mice treated with Compound-1 and untreated mice (vehicle) is shown.

KPC tumors = experiment: Quantitative flow cytometry of autochthonous KPC tumors (intratumoral immune landscape); format: in vivo, mice
[6] = tested on: KPC allograft tumors grown in C57BL/6 mice; experiment: M2 macrophages adaptive transfer study in KPC allograft model; format: in vivo; settings: intratumoral injections 3 times a week, compared to vehicle
[7] = tested on: murine M1 macrophages and M2 macrophages; experiment: Induction of phagocytosis, autophagy and apoptosis in bone marrow derived macrophages (BMDM), M1 versus M2, relative fluorescence; format: cell-based
Description: (§1) Induction of phagocytosis, autophagy, and apoptosis was studied in two in vitro models using M1 and M2 macrophages. […] FIGS. 12A to 12E illustrate this selectivity. […] FIGS. 13A to 13C illustrate this selectivity

[8] = tested on: RAW264.7 macrophages polarized into M1 and M2; experiment: Induction of phagocytosis, autophagy and apoptosis in RAW264.7 macrophages polarized into M1 and M2; format: cell-based, murine
Description: as §1

M2 macrophages [9] = experiment: Cancer cell phagocytosis by M1 and M2 macrophages, relative quantitative fluorescence; format: cell-based; settings: M2 versus M1 macrophages
Description: FIGS. 14A to 14B illustrate this selectivity towards M2 macrophages.

[10] = tested on: human CD206^high M2 macrophages; experiment: Cell viability assay of human macrophages; format: cell-based; settings: derived from healthy volunteers, compared to M1-like macrophages
Description: (§2) Similar selectivity is observed in dendritic cell DC2.4 viability (FIG. 9B), fibroblast HTT viability (FIG. 9C), RAW cell viability (FIG. 9D), and KPC viability (FIG. 9E).

[11] = tested on: CD206 negative control cell lines (DC2.4, fibroblast HTT, non-polarized RAW264.7, KPC cancer cells); experiment: Cell viability in a panel of CD206 negative control cell lines; format: cell-based
Description: as §2

murine M2 macrophages = experiment: M1 markers in murine M2 macrophages by quantitative flow cytometry; format: cell-based; settings: 20 μM for 2 hours
[12] = CD11b+F4/80+Gr-1 negative cells

Question: With `O=C(NCCc1cnc[nH]1)c1ccc(-c2ncc3cnc(-c4ccccc4)cn23)cc1` [Compound 1, N-(2-(1H-imidazol-5-yl)ethyl)-4-(6-phenylimidazo[1,5-a]pyrazin-3-yl)benzamide] as the compound, how does the pIC50 (M2 macrophages [1]; Macrophage, Table 2, read-out: IC50) read?
Answer: 5.54

Question: What about the IC50 (M2 macrophages [1]; Macrophage, figure legends and text, read-out: IC50, macrophage activity (Percentage Relative Cell Viability versus Log Molar Concentration) (converted)) of the same compound?
Answer: 2.86 µM

Question: And the “M2 Selectivity” value (M2 macrophages [1]; Table 2)?
Answer: Yes

Question: And the “CD206 dependence of macrophage activity” value [2]?
Answer: CD206 dependent

Question: What about the concentration at 0.157 h ([3]; IP (intraperitoneal), 20 mg/kg) of the same compound?
Answer: 7.89 µM

Question: What about the concentration at 0.5 h ([3]; IP (intraperitoneal), 20 mg/kg) of the same compound?
Answer: 7.6 µM

Question: And the concentration at 1 h ([3]; IP (intraperitoneal), 20 mg/kg)?
Answer: 11.1 µM

Question: And the concentration at 1.5 h ([3]; IP (intraperitoneal), 20 mg/kg)?
Answer: 12.8 µM

Question: And the concentration at 2 h ([3]; IP (intraperitoneal), 20 mg/kg)?
Answer: 5.84 µM

Question: What about the concentration at 4 h ([3]; IP (intraperitoneal), 20 mg/kg) of the same compound?
Answer: 3.02 µM

Question: What about the concentration at 7 h ([3]; IP (intraperitoneal), 20 mg/kg, 7.0 h) of the same compound?
Answer: 0.54 µM

Question: What about the concentration at 0.157 h ([3]; PO (Per Os, oral), 30 mg/kg) of the same compound?
Answer: 0.011 µM

Question: And the concentration at 0.5 h ([3]; PO (Per Os, oral), 30 mg/kg)?
Answer: 0.016 µM

Question: What about the concentration at 1 h ([3]; PO (Per Os, oral), 30 mg/kg) of the same compound?
Answer: 0.023 µM

Question: And the concentration at 1.5 h ([3]; PO (Per Os, oral), 30 mg/kg)?
Answer: 0.19 µM

Question: What about the concentration at 2 h ([3]; PO (Per Os, oral), 30 mg/kg) of the same compound?
Answer: 0.163 µM

Question: What about the concentration at 4 h ([3]; PO (Per Os, oral), 30 mg/kg) of the same compound?
Answer: 0.011 µM

Question: And the PK profile ([3]; liver, and pancreas, oral and IP injection)?
Answer: excellent PK profile

Question: What about the “CD206 particles in a closed state” value [4] of the same compound?
Answer: 48%

Question: And the “CD206 particles in open state” value [4]?
Answer: 52%

Question: What about the “binding to CD206 and conformation of the receptor” value [4] of the same compound?
Answer: binds to CD206 and induces a conformational switch of the receptor

Question: What about the “binding to CD206 and conformation of the receptor” value ([4]; listed as Example 38) of the same compound?
Answer: induces the closed conformation of the CD206 receptor

Question: What about the Tumor growth [5] of the same compound?
Answer: suppressed

Question: And the “CD206 positive cells within tumor associated macrophage population” value (KPC tumors; [12])?
Answer: reduction of CD206 positive cells

Question: What about the “Signal regulatory protein α (SIRPα) of tumor associated macrophages” value (KPC tumors; [12]) of the same compound?
Answer: reduction of the innate checkpoint Signal regulatory protein α (SIRPα)

Question: And the “CD206 macrophages in tumors (percent positive cell fractions of total cells)” value (KPC tumors; compared to vehicle)?
Answer: reduction of CD206 macrophages

Question: What about the “M2 to M1 macrophage shift in tumors” value (KPC tumors; compared to vehicle) of the same compound?
Answer: shift from CD206^high M2 to CD86-positive M1 macrophages

Question: What about the “intratumoral CD8 cells” value (KPC tumors; compared to vehicle) of the same compound?
Answer: increase in intratumoral CD8 cells

Question: What about the “M1 markers in intratumoral M1 and M2 macrophage populations” value (KPC tumors; treatment for three weeks in KPC mice, compared to vehicle) of the same compound?
Answer: induction of M1 markers

Question: And the “Tumor growth after intratumoral injection of pretreated M2 macrophages” value [6]?
Answer: reduction of tumor

Question: What about the “selectivity to induce phagocytosis, autophagy, and apoptosis” value ([7]; BMDM in vitro model) of the same compound?
Answer: excellent selectivity to induce phagocytosis, autophagy, and apoptosis in M2 but not in M1 macrophages

Question: And the induction of apoptosis ([7]; M1 versus M2)?
Answer: induces apoptosis in M2 but not in M1 macrophages

Question: What about the induction of autophagy ([7]; M1 versus M2) of the same compound?
Answer: induces autophagy in M2 but not in M1 macrophages

Question: And the “induction of early phagocytosis” value ([7]; M1 versus M2)?
Answer: induces early phagocytosis in M2 but not in M1 macrophages

Question: What about the induction of phagocytosis ([7]; M1 versus M2) of the same compound?
Answer: induces phagocytosis in M2 but not in M1 macrophages

Question: And the “induction of phagolysosome formation” value ([7]; M1 versus M2)?
Answer: induces phagolysosome formation in M2 but not in M1 macrophages

Question: And the “dose response in induction of phagocytosis” value ([7]; murine M2 macrophages treated for 24 hours)?
Answer: full dose response

Question: And the “selectivity to induce phagocytosis, autophagy, and apoptosis” value ([8]; RAW264.7 cell in vitro model)?
Answer: excellent selectivity to induce phagocytosis, autophagy, and apoptosis in M2 but not in M1 macrophages

Question: And the induction of apoptosis ([8]; compared to vehicle)?
Answer: induces apoptosis in M2 macrophages

Question: And the induction of autophagy ([8]; compared to vehicle)?
Answer: induces autophagy in M2 macrophages

Question: What about the induction of phagocytosis ([8]; compared to vehicle) of the same compound?
Answer: induces phagocytosis in M2 macrophages

Question: What about the cancer cell phagocytosis (M2 macrophages [9]) of the same compound?
Answer: increases cancer cell phagocytosis in M2 but not in M1 macrophages

Question: And the “activity in human CD206^high M2 macrophages” value [10]?
Answer: active

Question: And the “selectivity versus CD206 negative control cell lines” value [11]?
Answer: selective for the CD206^high M2 macrophages

Question: What about the “M1 markers (percent positive cell fractions)” value (murine M2 macrophages) of the same compound?
Answer: induction of M1 markers in M2 macrophages
